Patent US10435361B2, “Kinase inhibitors” (Topivert Pharma Limited, priority 2013, dated 2019)

What was measured:
Type in all cases: cell-based
PBMCs [1] = experiment: LPS-induced TNFα/IL-8 release in PBMC cells; conditions: Homo sapiens, assay (b), read-out: IC50 Values for Inhibition of Cytokine Release PBMCs IL-8
Method in brief: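 Healthy-donor PBMCs isolated by density gradient were pretreated with compound for 2 h, then stimulated with 1 ng/mL LPS (E. coli 0111:B4) for 24 h at 37° C., 5% CO2. IL-8 and TNFα in supernatants measured by sandwich ELISA.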

PBMCs [2] = experiment: IL-2 and IFN gamma release in CD3/CD28 stimulated PBMC cells; conditions: Homo sapiens, assay (c)
Protocol: PBMCs from healthy subjects are separated from whole blood using a density gradient (Lymphoprep, Axis-Shield Healthcare). Cells are added to a 96 well plate pre-coated with a mixture of CD3/CD28 monoclonal antibodies (0.3 μg/mL eBioscience and 3 μg/mL BD Pharmingen respectively). Compound at the desired concentration is then added to the wells and the plate left for 3 days under normal tissue culture conditions. […] The IC50 is determined from the dose response curve.

PBMCs [3] = experiment: Cell mitosis assay in PBMCs; conditions: Homo sapiens, PBMC, 5 μg/mL
Method in brief: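 Human PBMCs from healthy donors, density-gradient isolated, stimulated with 2% PHA 48 h, then exposed 20 h to test compounds; demecolcine 0.1 μg/mL added 2 h before harvest. Fixed/permeabilised cells stained for phospho-histone H3 and propidium iodide; mitotic lymphocytes counted by flow cytometry.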

[4] = read-out: IC50 Values for Inhibition of Cytokine Release PBMCs IFNγ
[5] = read-out: IC50 Values for Inhibition of Cytokine Release PBMCs IL-2

| SMILES | IC50 (PBMCs [1]) [nM] | IC50 (PBMCs [2]; [4]) [nM] | IC50 (PBMCs [2]; [5]) [nM] | inhibition at 5 µg/mL (PBMCs [3]) [%] |
| --- | --- | --- | --- | --- |
| COc1cc(CO)cc(Nc2cc(Oc3ccc(NC(=O)Nc4cc(C(C)(C)C)cc(C(N)=O)c4OC)c4ccccc34)ccn2)c1 [84(g), 5-tert-Butyl-3-[[4-[[2-[3-(hydroxymethyl)-5-methoxyanilino]-4-pyridyl]oxy]-1-naphthyl]carbamoylamino]-2-methoxybenzamide] | 0.7 | 1.3 | 43.5 | 84.6 |
| COc1c(NC(=O)Nc2ccc(Oc3ccnc(NCc4ccccn4)c3)c3ccccc23)cc(C(C)(C)C)cc1C(=O)NC1COC1 [Example 80, 5-(tert-Butyl)-2-methoxy-N-(oxetan-3-yl)-3-(3-(4-((2-((pyridin-2-ylmethyl)amino)pyridin-4-yl)oxy)naphthalen-1-yl)ureido)benzamide] | 4.3 | 23.8 |  | 70.4 |
| COCCOCCOCCOc1cc(Nc2nccc(Oc3ccc(NC(=O)Nc4cc(NS(C)(=O)=O)cc(C(C)(C)C)c4)c4ccccc34)n2)cc(OC)c1 [Example 24, N-(3-(tert-Butyl)-5-(3-(4-((2-((3-methoxy-5-(2-(2-(2-methoxyethoxy)ethoxy)ethoxy)-phenyl)amino)pyrimidin-4-yl)oxy)naphthalen-1-yl)ureido)phenyl)methanesulfonamide] | 1.9 | 10.7 | 24.9 | 22.5 |
| CNC(=O)c1cc(C(C)(C)C)cc(NC(=O)Nc2ccc(Oc3ccnc(Nc4cc(CO)cc(OC)c4)c3)c3ccccc23)c1OC [84(h), 5-tert-Butyl-3-[[4-[[2-[3-(hydroxymethyl)-5-methoxyanilino]-4-pyridyl]oxy]-1-naphthyl]carbamoylamino]-2-methoxy-N-methyl-benzamide] | 0.7 | 1.7 | 51.3 | 87 |
| COc1cc(Nc2cc(Oc3ccc(NC(=O)Nc4cc(C(C)(C)C)cc(C(N)=O)c4OC)c4ccccc34)ccn2)cc(C(=O)NCCN2CCOCC2)c1 [Example 47, 3-((4-((4-(3-(5-(tert-Butyl)-3-carbamoyl-2-methoxyphenyl)ureido)naphthalen-1-yl)oxy)pyridin-2-yl)amino)-5-methoxy-N-(2-morpholinoethyl)benzamide] | 1.6 | 7.3 | 102 | 59.1 |
| COc1cc(Nc2nccc(Oc3ccc(NC(=O)Nc4cc(C(C)(C)C)cc(NS(C)(=O)=O)c4OC)c4ccccc34)n2)cc(C(=O)NCCN2CCOCC2)c1 [Example 6, 3-((4-((4-(3-(5-(tert-Butyl)-2-methoxy-3-(methylsulfonamido)phenyl)ureido)naphthalen-1-yl)oxy)pyrimidin-2-yl)amino)-5-methoxy-N-(2-morpholinoethyl)benzamide] | 0.8 | 9.3 | 89.9 | 41.7 |
| C#Cc1cc(Nc2cc(Oc3ccc(NC(=O)Nc4cc(C(C)(C)C)cc(NS(C)(=O)=O)c4OC)c4ccccc34)ccn2)cc(C(=O)NCCOCCOCCOC)c1 [Example 54, 3-((4-((4-(3-(5-(tert-Butyl)-2-methoxy-3-(methylsulfonamido)phenyl)ureido)naphthalen-1-yl)oxy)pyridin-2-yl)amino)-5-ethynyl-N-(2-(2-(2-methoxyethoxy)ethoxy)ethyl)benzamide] | 1.6 | 33.3 | 354 | 37.8 |
| COc1cc(Nc2cc(Oc3ccc(NC(=O)Nc4cc(C(C)(C)C)cc(NS(C)(=O)=O)c4OC)c4ccccc34)ccn2)cc(C(=O)NCCN2CCS(=O)(=O)CC2)c1 [85(k), 3-[[4-[[4-[[5-tert-Butyl-3-(methanesulfonamido)-2-methoxyphenyl]-carbamoylamino]-1-naphthyl]oxy]-2-pyridyl]amino]-N-[2-(1,1-dioxo-1,4-thiazinan-4-yl)ethyl]-5-methoxybenzamide] | 1.7 | 9.3 | 57.1 | 41 |
